The subject of series [1] is FHR-2, an HIV-1 strain resistant to DSB (2). Put plainly: microbe, parasite or virus in culture. The series is classed as cell-based. The text has this:
(§1) NL4-3 is a T-cell adapted HIV-1 strain, a wild type virus; PI—R is HIV-1M46I/L63P/V82P/I84V, an HIV-1 strain resistant to multiple protease inhibitors; and FHR-2 is an HIV-1 strain resistant to DSB (2).

For series [2], the system named is NL4-3, a T-cell adapted HIV-1 strain, X4 wild type virus. The experiment in a line: microbe, parasite or virus in culture. The series is classed as cell-based.
Excerpt: as §1

A further series deals with MT-4 cells. Put plainly: Cell growth inhibition (cytotoxicity) of uninfected cells. Type of series: cell-based. As to conditions: table title: MT-4 cells; uninfected H9 cell growth; read-out: IC50 (concentration that inhibits uninfected cell growth by 50%).
The subject of the next series is HIV fusion. Put plainly: Anti-HIV fusion activity (preliminary, data not shown). The series is classed as cell-based. As to conditions: preliminary results.
Excerpt: as §1

In series [3] the test system is PI-R, HIV-1M46I/L63P/V82P/I84V, resistant to multiple protease inhibitors. The experiment in a line: microbe, parasite or virus in culture. Type of series: cell-based.
Excerpt: as §1

Series [4] in a line: Cell growth inhibition (cytotoxicity) of uninfected cells. The series is classed as cell-based. As to conditions: human, uninfected MT-4 cells; table title: MT-4 cells; uninfected H9 cell growth; read-out: IC50 (concentration that inhibits uninfected cell growth by 50%).
A further series deals with HIV in H9 lymphocyte. As to conditions: cited from earlier work.
Where [5] appears, read: MT-4 cells, DSB-resistant HIV-1 strain, — = no suppression at 5 μM, read-out: EC50, FHR-2 (concentration that inhibits viral replication by 50%).
Setting [6] is: MT-4 cells, NL4-3 wild type HIV-1 strain, read-out: EC50, NL4-3 (concentration that inhibits viral replication by 50%).
Setting [7] is: MT-4 cells, multi-protease-inhibitor resistant HIV-1 strain, read-out: EC50, PI-R (concentration that inhibits viral replication by 50%).

Like-named read-outs stand apart in the source and are kept apart here.

`Cc1cn([C@H]2C[C@H](N=[N+]=[N-])[C@@H](CO)O2)c(=O)[nH]c1=O` [AZT, reference compound]: the EC50 was 190 nM in series [1] (setting [5]) and 13 nM in series [2] (setting [6]). Also, the IC50 in the series on MT-4 cells is greater than 37500 nM.

For `CC(C)CC(CO)NC(=O)[C@]12CCC(C)(C)C=C1[C@H]1CC[C@@H]3[C@@]4(C)CC[C@H](OC(=O)CC(C)(C)C(=O)O)C(C)(C)[C@@H]4CC[C@@]3(C)[C@]1(C)CC2` (stereo partly drawn) [Compound 7, N-[3β-(3′,3′-Dimethylsuccinoxy)olean-18-en-28-oyl]-(1-hydroxy-methyl-3-methyl-butyl)-amide], the anti-HIV fusion activity entry with HIV fusion is “exhibit anti-HIV fusion activity”. The figures for the EC50 in series [1] (setting [5]), in series [3] (setting [7]) and in series [2] (setting [6]) were 2780 nM, 88 nM and 45 nM, respectively. In the series with MT-4 cells, the IC50 is greater than 14600 nM.

In the case of `CC(C)C[C@H](NC(=O)[C@]12CCC(C)(C)C=C1[C@H]1CC[C@@H]3[C@@]4(C)CC[C@H](OC(=O)CC(C)(C)C(=O)O)C(C)(C)[C@@H]4CC[C@@]3(C)[C@]1(C)CC2)C(=O)O` [Compound 8, N-[3β-(3′,3′-Dimethylsuccinoxy)olean-18-en-28-oyl]-L-leucine], the anti-HIV fusion activity entry with HIV fusion was “exhibit anti-HIV fusion activity”. In addition, the EC50 in series [1] (setting [5]) was determined as 130 nM; in series [3] (setting [7]) it was 21 nM; in series [2] (setting [6]), 5.7 nM. Besides, the IC50 in the series on MT-4 cells is greater than 14300 nM.

On to `C=C(C)[C@@H]1CC[C@]2(C(=O)O)CC[C@]3(C)[C@H](CC[C@@H]4[C@@]5(C)CC[C@H](OC(=O)CC(C)(C)C(=O)O)C(C)(C)[C@@H]5CC[C@]43C)[C@@H]12` [DSB (2), 3-O-(3′,3′-dimethylsuccinyl)-betulinic acid, reference compound], for which the EC50 in series [1] (Human immunodeficiency virus 1, MT4, read-out: EC50, FHR-2 (concentration that inhibits viral replication by 50%)) was greater than 5000 nM; in series [3] (Human immunodeficiency virus 1, MT4, read-out: EC50, PI-R (concentration that inhibits viral replication by 50%)) it was 430 nM; in series [2] (Human immunodeficiency virus 1, NL43, MT4, read-out: EC50, NL4-3 (concentration that inhibits viral replication by 50%)) it was 96 nM. Moreover, in series [4], the IC50 was greater than 5000 nM.

`CC1(C)C=C2[C@H]3CC[C@@H]4[C@@]5(C)CCC(=O)C(C)(C)[C@@H]5CC[C@@]4(C)[C@]3(C)CC[C@@]2(C(=O)O)CC1` [moronic acid (3), moronic acid]: the “EC50, anti-HIV activity” value with HIV in H9 lymphocyte was less than 0.1 µg/mL.

The values are drawn from patent US7282521B2, “Anti-retroviral moronic acid derivatives” (priority 2004, dated 2007).
